This assay addresses T1, androgen receptor (Homo sapiens, UniProt P10275).
T1 sequence (P10275 1-920 Q868H): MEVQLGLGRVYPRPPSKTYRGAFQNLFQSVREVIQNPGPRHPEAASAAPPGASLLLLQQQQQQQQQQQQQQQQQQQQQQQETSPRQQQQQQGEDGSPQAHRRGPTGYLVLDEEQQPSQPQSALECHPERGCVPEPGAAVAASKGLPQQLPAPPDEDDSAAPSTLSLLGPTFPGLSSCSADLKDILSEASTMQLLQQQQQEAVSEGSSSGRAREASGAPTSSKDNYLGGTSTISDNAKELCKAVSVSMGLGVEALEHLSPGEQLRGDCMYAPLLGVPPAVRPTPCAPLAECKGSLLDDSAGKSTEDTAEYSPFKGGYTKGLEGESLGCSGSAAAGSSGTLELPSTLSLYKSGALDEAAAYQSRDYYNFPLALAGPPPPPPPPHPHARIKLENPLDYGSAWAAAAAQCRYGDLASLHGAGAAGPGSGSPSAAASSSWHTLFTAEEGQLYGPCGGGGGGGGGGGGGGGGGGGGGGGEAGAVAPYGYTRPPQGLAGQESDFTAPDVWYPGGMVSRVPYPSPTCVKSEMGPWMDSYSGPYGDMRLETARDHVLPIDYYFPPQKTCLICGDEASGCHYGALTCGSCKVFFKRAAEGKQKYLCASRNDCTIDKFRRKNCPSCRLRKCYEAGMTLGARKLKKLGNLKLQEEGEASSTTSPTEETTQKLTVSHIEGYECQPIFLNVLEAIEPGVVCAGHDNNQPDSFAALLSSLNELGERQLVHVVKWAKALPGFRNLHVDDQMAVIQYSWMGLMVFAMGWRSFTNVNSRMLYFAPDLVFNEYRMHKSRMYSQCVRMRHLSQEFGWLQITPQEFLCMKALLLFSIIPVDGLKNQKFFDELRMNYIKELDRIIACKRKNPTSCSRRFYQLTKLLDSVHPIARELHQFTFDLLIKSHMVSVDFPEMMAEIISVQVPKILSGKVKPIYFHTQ
As to the kind of experiment: AR Antagonist Cell Assay (MMTV-luciferase reporter, DHT-induced). The class given is cell-based. Conditions: MDA-MB453-MMTV clone 54-19 cells, 100 pM DHT, 17 hr. The method, then:
The compounds ability to antagonize the effects of androgen on the androgen receptor were determined in the protocol described immediately below.
Experimental Procedure for AR Antagonist Cell Assay
Cell line: MDA-MB453-MMTV clone 54-19. This cell line is a stable transfected cell line with MDA-MB453 cell background (human breast tumor cell expressing high level of androgen receptor). A MMTV minimal promoter containing ARE was first cloned in front of a firefly luciferase reporter gene. Then the cascade was cloned into transfection vector pUV120puro. Electroporation method was used for transfecting MDA-MB-453 cell. Puromycin resistant stable cell line was selected.
Cell Culture Media and Reagents:
Culture medium: DMEM (high glucose, Gibco cat #: 11960-044), 10% FBS, and 1% L-glutamine
Plating medium: DMEM (phenol red free), 10% charcoal treated HyClone serum, 1% L-glutamine
Assay medium: DMEM (phenol red free), 1% charcoal treated HyClone serum, 1% L-glutamine, and 1% penicillin/streptomycin
3× luciferase buffer: 2% beta-mercaptoethanol, 0.6% ATP, 0.0135% luciferine in cell lysis buffer
• 1. Cells are maintained in culture medium, splitting cells when they reach 80–90% confluence • 2. To test compounds, 10,000 cells/well are plated to opaque 96 cell culture plate in 100 ul/well plating medium, culture for overnight at 37° C. in cell culture incubator • 3. Carefully remove plating medium, then add 80 ul/well of pre-warmed assay medium, add 10 ul/well testing compound (final concentration at 10 uM or 1 uM), incubate at 37° C. for 30 minutes • 4. Add 10 ul/well freshly prepared DHT (final concentration at 100 pM) to each well, incubate at 37° C. for 17 hr (overnight) • 5. Add 50 ul/well 3× luciferase buffer, incubate at room temperature for 5 minutes, then count on Luminometer The fold induction over background by 100 pM DHT in the absence of testing compounds is standardized as 100% and experimental result is expressed as percentage of inhibition by testing compounds. TABLE3

Some results are limits rather than exact numbers.

The compound `Cn1c(=O)cc(C(F)(F)F)c2cc(S(=O)(=O)Nc3cccc4cccnc34)ccc21` [Example 34, 1-Methyl-2-oxo-4-trifluoromethyl-1,2-dihydroquinoline-6-sulfonicacid quinolin-8-ylamide] returned an IC50 of over 10 µM.
Regarding `CSc1n[nH]c(NS(=O)(=O)c2ccc3c(c2)c(C(F)(F)F)cc(=O)n3C)c1C#N` [Example 35, 1-Methyl-2-oxo-4-trifluoromethyl-1,2-dihydroquinoline-6-sulfonicacid (4-cyano-5-methylsulfanyl-2H-pyrazol-3-yl)amide], the IC50 is over 10 µM.
Compound `COc1cc(NS(=O)(=O)c2ccc3c(c2)c(C(F)(F)F)cc(=O)n3C)cc(OC)c1` [Example 36, 1-Methyl-2-oxo-4-trifluoromethyl-1,2-dihydroquinoline-6-sulfonicacid (3,5-dimethoxyphenyl)-amide] gave an IC50 of 2.72 µM.
The same measure for `CC(C)Oc1cccc(NS(=O)(=O)c2ccc3c(c2)c(C(F)(F)F)cc(=O)n3C)c1` [Example 37, 1-Methyl-2-oxo-4-trifluoromethyl-1,2-dihydroquinoline-6-sulfonicacid (3-isopropoxyphenyl)-amide]: 6.1 µM.
Then `Cn1c(=O)cc(C(F)(F)F)c2cc(S(=O)(=O)Nc3cccc(OC(F)F)c3)ccc21` [Example 38, 1-Methyl-2-oxo-4-trifluoromethyl-1,2-dihydroquinoline-6-sulfonicacid (3-difluoromethoxy-phenyl)amide], with 5.63 µM; and `Cn1c(=O)cc(C(F)(F)F)c2cc(S(=O)(=O)Nc3cccc(C(F)(F)F)c3)ccc21` [Example 39, 1-Methyl-2-oxo-4-trifluoromethyl-1,2-dihydroquinoline-6-sulfonicacid (3-trifluoromethylphenyl)-amide], with 0.93 µM; and `Cc1cc(=O)oc2cc(NS(=O)(=O)c3ccc4c(c3)c(C(F)(F)F)cc(=O)n4C)ccc12` [Example 40, 1-Methyl-2-oxo-4-trifluoromethyl-1,2-dihydroquinoline-6-sulfonic(4-methyl-2-oxo-2H-chromen-7-yl)amide], with over 10 µM.
The same measure for `Cn1c(=O)cc(C(F)(F)F)c2cc(S(=O)(=O)Nc3cccc(OC(F)(F)F)c3)ccc21` [Example 41, 1-Methyl-2-oxo-4-trifluoromethyl-1,2-dihydroquinoline-6-sulfonicacid (3-trifluoromethoxy-phenyl)amide]: 3.86 µM; for `CCOC(=O)Cc1ccc(NS(=O)(=O)c2ccc3c(c2)c(C(F)(F)F)cc(=O)n3C)cc1` [Example 42, [4-(1-Methyl-2-oxo-4-trifluoromethyl-1,2-dihydroquinoline-6-sulfonylamino)phenyl]aceticacid ethyl ester]: over 10 µM; for `Cn1c(=O)cc(C(F)(F)F)c2cc(S(=O)(=O)Nc3cccc(Cc4ccccc4)c3)ccc21` [Example 43, 1-Methyl-2-oxo-4-trifluoromethyl-1,2-dihydroquinoline-6-sulfonicacid (3-benzylphenyl)amide]: over 10 µM.
In turn, `CCOc1ccc(NS(=O)(=O)c2ccc3c(c2)c(C(F)(F)F)cc(=O)n3C)cc1` [Example 44, 1-Methyl-2-oxo-4-trifluoromethyl-1,2-dihydroquinoline-6-sulfonicacid (4-ethoxyphenyl)amide] displayed an IC50 of 3.76 µM.
The same measure for `Cn1c(=O)cc(C(F)(F)F)c2cc(S(=O)(=O)Nc3cc(C(C)(C)C)cc(C(C)(C)C)c3)ccc21` [Example 45, 1-Methyl-2-oxo-4-trifluoromethyl-1,2-dihydroquinoline-6-sulfonicacid (3,5-di-tert-butylphenyl)amide]: over 10 µM; for `COc1ccc(N(Cc2ccccc2)S(=O)(=O)c2ccc3c(c2)c(C(F)(F)F)cc(=O)n3C)cc1` [Example 46, 1-Methyl-2-oxo-4-trifluoromethyl-1,2-dihydroquinoline-6-sulfonicacid benzyl(4-methoxy-phenyl)amide]: over 10 µM.
Then `Cn1c(=O)cc(C(F)(F)F)c2cc(S(=O)(=O)Nc3ccc(-n4ccc(C(F)(F)F)n4)cc3)ccc21` [Example 47, 1-Methyl-2-oxo-4-trifluoromethyl-1,2-dihydroquinoline-6-sulfonicacid [4-(3-trifluoromethylpyrazol-1-yl)phenyl]amide], with 2.96 µM; and `COc1cccc(NS(=O)(=O)c2ccc3c(c2)c(C(F)(F)F)cc(=O)n3C)c1` [Example 48, 1-Methyl-2-oxo-4-trifluoromethyl-1,2-dihydroquinoline-6-sulfonicacid (3-methoxyphenyl)amide], with 1.13 µM; and `Cn1c(=O)cc(C(F)(F)F)c2cc(S(=O)(=O)NCCC(C)(C)C)ccc21` [Example 49, 1-Methyl-2-oxo-4-trifluoromethyl-1,2-dihydroquinoline-6-sulfonicacid (3,3-dimethylbutyl)amide], with over 10 µM.
The same measure for `Cn1c(=O)cc(C(F)(F)F)c2cc(S(=O)(=O)NCCc3ccccc3)ccc21` [Example 50, 1-Methyl-2-oxo-4-trifluoromethyl-1,2-dihydroquinoline-6-sulfonicacid phenethylamide]: 1.55 µM.
`Cc1ccc(CNS(=O)(=O)c2ccc3c(c2)c(C(F)(F)F)cc(=O)n3C)cc1` [Example 51, 1-Methyl-2-oxo-4-trifluoromethyl-1,2-dihydroquinoline-6-sulfonicacid 4-methylbenzylamide]: the IC50 was over 10 µM.
Then `Cc1ccccc1CNS(=O)(=O)c1ccc2c(c1)c(C(F)(F)F)cc(=O)n2C` [Example 52, 1-Methyl-2-oxo-4-trifluoromethyl-1,2-dihydroquinoline-6-sulfonicacid 2-methylbenzylamide], with over 10 µM; and `Cn1c(=O)cc(C(F)(F)F)c2cc(S(=O)(=O)NCCC3=CCCCC3)ccc21` [Example 53, 1-Methyl-2-oxo-4-trifluoromethyl-1,2-dihydroquinoline-6-sulfonicacid (2-cyclohex-1-enylethyl)amide], with 1.84 µM; and `Cn1c(=O)cc(C(F)(F)F)c2cc(S(=O)(=O)NCCc3cccs3)ccc21` [Example 54, 1-Methyl-2-oxo-4-trifluoromethyl-1,2-dihydroquinoline-6-sulfonicacid (2-thiophen-2-ylethyl)amide], with 5.68 µM.
The same measure for `Cn1c(=O)cc(C(F)(F)F)c2cc(S(=O)(=O)NC3CCc4ccccc43)ccc21` (centres unmarked) [Example 55, 1-Methyl-2-oxo-4-trifluoromethyl-1,2-dihydroquinoline-6-sulfonicacid indan-1-ylamide]: 4.31 µM; for `CC(CNS(=O)(=O)c1ccc2c(c1)c(C(F)(F)F)cc(=O)n2C)c1ccccc1` (centres unmarked) [Example 56, 1-Methyl-2-oxo-4-trifluoromethyl-1,2-dihydroquinoline-6-sulfonicacid (2-phenylpropyl)amide]: 2.73 µM.
The same measure for `Cn1c(=O)cc(C(F)(F)F)c2cc(S(=O)(=O)NCCCCc3ccccc3)ccc21` [Example 57, 1-Methyl-2-oxo-4-trifluoromethyl-1,2-dihydroquinoline-6-sulfonicacid (4-phenylbutyl)amide]: over 10 µM; for `COc1ccccc1CCNS(=O)(=O)c1ccc2c(c1)c(C(F)(F)F)cc(=O)n2C` [Example 58, 1-Methyl-2-oxo-4-trifluoromethyl-1,2-dihydroquinoline-6-sulfonicacid [2-(2-methoxyphenyl)ethyl]amide]: 5.4 µM; for `Cn1c(=O)cc(C(F)(F)F)c2cc(S(=O)(=O)NCc3cc(Cl)ccc3F)ccc21` [Example 59, 1-Methyl-2-oxo-4-trifluoromethyl-1,2-dihydroquinoline-6-sulfonicacid 5-chloro-2-fluorobenzylamide]: over 10 µM.

A word on the IC50: it is the midpoint of a concentration-inhibition curve. A low value points to higher potency.

The values are drawn from patent US7009052B2, “Sulfonamide derivatives” (Warner Lambert Company LLC, priority 2003, dated 2006).
